Results published in patent US6603023B2 (priority 1996, dated 2003).
Like-named read-outs stand apart in the source and are kept apart here.

Columns and labels:
[1] = tested on: CCRF-CEM human T-cell acute lymphoblastic leukemia cell line; assay: XTT cytotoxicity (cell growth inhibition), CCRF-CEM; conditions: Homo sapiens, CCRF-CEM
Procedure, shortened: (§1)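 Suspension leukemic cells (CCRF-CEM, P388 and drug-resistant sublines kept under the selecting agent) were seeded at 5×10^4 cells/mL in RPMI-1640 with 10% FBS at 37 °C. After 72 h drug exposure in duplicate, PMS-XTT was added for 4 h. Absorbance was read at 450 and 630 nm.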

P388/Adr = assay: cells; type: cell-based, murine; conditions: Mus musculus, P388/ADR, 72 h
Procedure, shortened: as §1

[2] = tested on: human mammary carcinoma MX-1 xenograft; set-up: Toxicity toward Nude Mice: key to the marks not given beside the values; conditions: for Average Body Weight, Day 7: initial weight, first treatment day
Protocol: DMSO was used as a vehicle for epothilones. Each mouse received ≦40 μL DMSO in all experiments.
Athymic nude mice (nu/nu) were used for MX-1 and MCF-7/Adr human mammary carcinoma xenografts. Mice were obtained from Taconic Laboratory Animals and Service (Germantown, N.Y.: outbred, Swiss background).

Human CCRF-CEM Xenograft = assay: CCRF-CEM xenograft in scid mice; type: in vivo, CB-17 scid mice
[3] = tested on: Human CCRF-CEM/VBL Xenograft; assay: CCRF-CEM/VBL xenograft in scid mice; type: in vivo, CB-17 scid mice; as to Average weight change: unit not given here
[4] = Taxol 5 mg/kg on day 8-16 and 18-26, n = 10
[5] = Taxol 24 mg/kg, 6 hr i.v. infusion Q2D x 5 (day 8-16)
[6] = dEpo B 30, Taxol 15 mg/kg, 6 hr i.v. infusion Q2D x 5 (day 8-16), TD: Tumor disappearance
[7] = extended experiment, Desoxyepo B 40, Taxol 5 mg/kg i.p. Q2D day 8-16 and 18-26
[8] = high doses: dEpoB 25, EpoB 0.6, Taxol 10, Vinblastine 0.4 mg/kg i.p. Q2D from day 7
[9] = low doses: dEpoB 15, EpoB 0.3, Taxol 5, Vinblastine 0.2 mg/kg i.p. Q2D day 7-15
[10] = male, athymic nude (nu/nu), outbred, Swiss background, mouse, in vivo
[11] = dose 2.0 i.p. QD d7-10,14,15, day 7
[12] = dose 2.0 i.p. QD d7-10,14,15, day 12
[13] = dose 2.0 i.p. QD d7-10,14,15, day 17
[14] = dose 2.0 i.p. QD d7-10,14,15, day 22
[15] = dose 4.0 i.p. QD d7-10,14,15, day 7
[16] = dose 4.0 i.p. QD d7-10,14,15, day 12
[17] = dose 4.0 i.p. QD d7-10,14,15, day 17
[18] = dose 4.0 i.p. QD d7-10,14,15, day 22

## CC(=O)O[C@H]1C(=O)[C@@]2(C)[C@H]([C@H](OC(=O)c3ccccc3)[C@]3(O)C[C@H](OC(=O)[C@H](O)[C@@H](NC(=O)c4ccccc4)c4ccccc4)C(C)=C1C3(C)C)[C@]1(OC(C)=O)CO[C@@H]1C[C@@H]2O [Taxol ®, paclitaxel]
[1]
  IC50: 2.1 nM
[1]; 72 h, Table 1A, XTT
  IC50: 2.1 nM
[1]; Table 1, XTT
  IC50: 2 nM
[1]; Table 2
  IC50: 2.3 nM
[1]; Table 5, single determinations
  IC50: 2.1 nM
[1]; read-out: IC50 (A), Table 2A, parent cell line
  IC50: 2.3 nM
P388/Adr
  IC50: 326 nM
[2]; 5 mg/kg i.p. Q2Dx5 from day 7, day 11
  Average Body Weight Change: -0.1 g
[2]; 5 mg/kg i.p. Q2Dx5 from day 7, day 13
  Average Body Weight Change: +0.4 g
[2]; 5 mg/kg i.p. Q2Dx5 from day 7, day 15
  Average Body Weight Change: +1.1 g
[2]; 5 mg/kg i.p. Q2Dx5 from day 7, day 17
  Average Body Weight Change: +1.2 g
[2]; 5 mg/kg i.p. Q2Dx5 from day 9
  Tumor Disapp.: 0/6
[2]; 5 mg/kg i.p. Q2Dx5 from day 9, day 13
  Average Body Weight Change: -1.1 g
[2]; 5 mg/kg i.p. Q2Dx5 from day 9, day 15
  Average Body Weight Change: -2.0 g
[2]; 5 mg/kg i.p. Q2Dx5 from day 9, day 17
  Average Body Weight Change: -1.0 g
[2]; 5 mg/kg i.p. Q2Dx5 from day 9, day 19
  Average Body Weight Change: -0.2 g
[2]; 5 mg/kg i.p. d8,10,12,14,16
  Tumor Disappearance: 2/10
[2]; 5 mg/kg i.p. d18-26, extended after d8-16, day 20
  Tumor Disappearance: 0/10^
[2]; 5 mg/kg i.p. d18-26, extended after d8-16, day 22
  Tumor Disappearance: 0/10
[2]; 5 mg/kg i.p. d18-26, extended after d8-16, day 24
  Tumor Disappearance: 0/10
[2]; 5 mg/kg i.p. d18-26, extended after d8-16, day 26
  Tumor Disappearance: 0/10
[2]; 5 mg/kg i.p. d18-26, extended after d8-16, day 28
  Tumor Disappearance: 0/10
[2]; 10 mg/kg i.p. Q2Dx5 from day 7, day 11
  Average Body Weight Change: -2.7 g
[2]; 10 mg/kg i.p. Q2Dx5 from day 7, day 13
  Average Body Weight Change: -1.1 g
[2]; 10 mg/kg i.p. Q2Dx5 from day 7, day 15
  Average Body Weight Change: -0.3 g
[2]; 10 mg/kg i.p. Q2Dx5 from day 7, day 17
  Average Body Weight Change: +2.2 g
[2]; 10 mg/kg i.p. d8,10,12,14,16
  Tumor Disappearance: 2/6
[2]; 10 mg/kg, no extended test
  tumor reappeared on day: Reappeared on day 38
[2]; 10 mg/kg, no extended test, day 16
  Tumor Disappearance: 1/6 on day 16
[2]; MX-1, dEpoB 30 mg/kg Q2D x 6, Taxol 15 mg/kg Q2D x 6
  Lowest Average Tumor Size (T/C): 0 T/C
[2]; Taxol 5 mg/kg i.p. Q2Dx5 from day 8
  tumor volume reduction: 53%
[2]; [4]
  Tumor Size (group average), Day 8: 17 mm^3
  Tumor Size (group average), Day 10: 45 mm^3
  Tumor Size (group average), Day 12: 54 mm^3
  Tumor Size (group average), Day 14: 128 mm^3
  Tumor Size (group average), Day 16: 311 mm^3
  Tumor Size (group average), Day 18: 596 mm^3
  Tumor Size (group average), Day 20: 1114 mm^3
  Tumor Size (group average), Day 22: 1930 mm^3
  Tumor Size (group average), Day 24: 2285 mm^3
[2]; Taxol 10 mg/kg, no extended test
  Tumor reappearance (Reappear on day): Reappear on day 38
[2]; Taxol 10 mg/kg, on day 16, no extended test
  Tumor Disappearance: 1/6 on day 16,
[2]; Taxol 15 mg/kg i.v. Q2Dx5 from day 9
  Tumor Disapp.: 2/6
[2]; [5]
  Average Body Weight (change), Day 14: -4.8 g
  Average Body Weight (change), Day 16: -5.3 g
  Average Body Weight (change), Day 18: -6.0 g
  Average Body Weight (change), Day 20: -6.2 g
  Tumor Disappearance: 4/4
[2]; Taxol 24 mg/kg, 6 hr i.v. infusion Q2D x 5 (day 8-16), TD: Tumor disappearance
  Average Tumor Size (T/C), Day 14: 0.03 T/C
[2]; dEpo B 30, Taxol 15 mg/kg, 6 hr i.v. infusion Q2D x 5 (day 8-16)
  Tumor Disappearance: 4/4
[2]; [6]
  Average Tumor Size (T/C), Day 14: 0.06 T/C
  Average Tumor Size (T/C), Day 16: 0.01 T/C
[2]; [7]
  Average Body Weight Change, Day 20: -1.6 g
  Average Body Weight Change, Day 22: -0.3 g
  Average Body Weight Change, Day 24: +0.1 g
  Average Body Weight Change, Day 26: -0.6 g
  Average Body Weight Change, Day 28: -0.4 g
  Tumor Disappearance, Day 20: 0/10
  Tumor Disappearance, Day 22: 0/10
  Tumor Disappearance, Day 24: 0/10
  Tumor Disappearance, Day 26: 0/10
  Tumor Disappearance, Day 28: 0/10
[2]; [8]
  Average Tumor Volume (T/C), Day 11: 0.43 T/C
  Average Tumor Volume (T/C), Day 13: 0.37 T/C
  Average Tumor Volume (T/C), Day 15: 0.12 T/C
  Average Tumor Volume (T/C), Day 17: 0.11 T/C
  Average Body Weight, Day 7: 27.6 g
[2]; [9]
  Average Body Weight, Day 7: 26.9 g
  Average Tumor Volume (T/C), Day 11: 0.54 T/C
  Average Tumor Volume (T/C), Day 13: 0.46 T/C
  Average Tumor Volume (T/C), Day 15: 0.40 T/C
  Average Tumor Volume (T/C), Day 17: 0.45 T/C
[2]; male, athymic nude (nu/nu), mouse, in vivo
  # Mice Died: 0/10
[2]; [10]
  # Died of toxicity: 2/10
  # Mice Died: 1/6
  lethality: 2/6
  lethality (mice died of toxicity): 2/10
  mice died of toxicity: 2 out of 10
[2]; mouse, in vivo
  Tumor Disappearance: 5/5
  mice died of toxicity: four out of seven
[2]; mouse, in vivo, ip, 15 mg/kg
  Toxicity toward Nude Mice: ++++
[2]; mouse, in vivo, ip, 35 mg/kg
  Toxicity toward Nude Mice: ++
[2]; mouse, in vivo, iv, 15 mg/kg
  Toxicity toward Nude Mice: ++
[2]; mouse, in vivo, iv, 24 mg/kg
  Toxicity toward Nude Mice: ++
[2]; mouse, in vivo, iv, 30 mg/kg
  Toxicity toward Nude Mice: ++
[2]; paclitaxel 5 mg/kg
  reduction in tumor volume: 55%
[2]; paclitaxel 5 mg/kg Q2Dx5 i.p. d8-16 and d18-26, n=10
  average tumor size on day 24: 2285±97 mm^3
[2]; paclitaxel 10 mg/kg
  tumor reduction: 89%
Human CCRF-CEM Xenograft; [11]
  Average weight change: −0.1
Human CCRF-CEM Xenograft; [12]
  Average tumor volume (control = 1.00): 0.39
  Average weight change: −1.1
Human CCRF-CEM Xenograft; [13]
  Average tumor volume (control = 1.00): 0.29
  Average weight change: −1.5
Human CCRF-CEM Xenograft; [14]
  Average tumor volume (control = 1.00): 0.28
  Average weight change: −0.3
Human CCRF-CEM Xenograft; [15]
  Average weight change: −0.2
Human CCRF-CEM Xenograft; [16]
  Average tumor volume (control = 1.00): 0.37
  Average weight change: −1.7
Human CCRF-CEM Xenograft; [17]
  Average tumor volume (control = 1.00): 0.23
  Average weight change: −1.9
Human CCRF-CEM Xenograft; [18]
  Average tumor volume (control = 1.00): 0.19
  Average weight change: −0.3
[3]; [11]
  Average weight change: 0
[3]; [12]
  Average tumor volume (control = 1.00): 0.60
  Average weight change: −0.9
[3]; [13]
  Average tumor volume (control = 1.00): 0.58
  Average weight change: −1.5
[3]; [14]
  Average tumor volume (control = 1.00): 0.70
  Average weight change: −0.1
[3]; [15]
  Average weight change: 0
[3]; [16]
  Average tumor volume (control = 1.00): 0.79
  Average weight change: −1.4
[3]; [17]
  Average tumor volume (control = 1.00): 0.55
  Average weight change: −1.6
[3]; [18]
  Average tumor volume (control = 1.00): 0.41
  Average weight change: −0.9
